Experiment [1] deals with Lkb1FspKO/FspKO mice (PJS polyps). Nature of the experiment: Ruxolitinib-containing chow treatment of Lkb1FspKO/FspKO mice, tumor burden after six weeks.
In a further experiment the test system is Stat3. Briefly: Stat3 activation in primary epithelial crypts incubated with recombinant cytokine. Format: cell-based. The note with it: primary epithelial crypts isolated from mouse small intestine. As to the method: (§1) IL-11 signaling is mediated via its binding to the transmembrane receptor Gp130, resulting in activation of the Jak-Stat and MAPK pathways. Of these, the induction of Jak-Stat3 activation appears most critical in GI tumorigenesis. To investigate whether IL-11 is sufficient to induce Stat3 activation in isolated wild-type epithelium, we incubated primary epithelial crypts isolated from mouse small intestine with recombinant IL-11. […] Next, we addressed whether Stat3-dependent transcriptional changes observed in polyps can be induced by IL-11 in primary epithelial organoid cultures. We focused our analysis in Reg3b, Reg3g and Lrg1 genes due to their reported expression in inflammatory epithelium in a Stat3-dependent manner and overexpression in PJS model polyps (Supplemental FIG. 6D, Supplemental Table 3).

Experiment [2] deals with Reg3b, Reg3g and Lrg1 expression. Nature of the experiment: Induction of Stat3-dependent genes in primary epithelial organoid cultures. Format: cell-based. As for the experimental part: as §1

For `N#CC[C@H](C1CCCC1)n1cc(-c2ncnc3[nH]ccc23)cn1` [ruxolitinib, Ruxolitinib], the tumor-free mice in experiment [1] (ruxolitinib chow 2 g/kg, 6/11 treated mice, all non-treated mice developed polyps) turned out to be 55%. The same molecule yielded an average polyp diameter in experiment [1] (ruxolitinib chow, 2.51 in non-treated, p=0.082, not significant) of 1.68 mm. The average tumor number in experiment [1] (ruxolitinib chow, 6.54 in non-treated) was 1.27. Also, in experiment [1] (ruxolitinib chow, 47.4 in non-treated), the average tumor area was found to be 3.58 mm2.
For the molecule “IL-6: IL-6 cytokine used as comparator for Stat3 activation”, the “activation of Stat3” value in the experiment on Stat3 was “comparably”.

B1: IL-11: recombinant IL-11, an IL-6 family cytokine signalling via Gp130 (protein, UniProt P20809 22-199, looked up)
Interleukin-11: PGPPPGPPRVSPDPRAELDSTVLLTRSLLADTRQLAAQLRDKFPADGDHNLDSLPTLAMSAGALGALQLPGVLTRLRADLLSYLRHVQWLRRAGGSSLKTLEPELGTLQARLDRLLRRLQLLMSRLALPQPPPDPPAPPLAPPSSAWGGIRAAHAILGGLHLTLDWAVRGLLLLKTRL
Regarding B1, the “induction of Reg3b, Reg3g and Lrg1 expression” value in experiment [2] is listed as “robust induction”. In the experiment with Stat3, the “activation of Stat3” value is given as “resulted in activation of Stat3”.

Source of the values: patent US20200129514A1, “JAK INHIBITION AS A NOVEL THERAPY FOR PREVENTING TUMORS IN PEUTZ-JEGHERS SYNDROME” (Curingenetics, LLC, priority 2018, published 2020).
